Reference: the OligoGym collection
“And” between values parts separate entries of the source, which are not always exact repeats. Equal values may be shown once. HELM strings list units from the 5' end as sugar, base in round brackets, then linkage (d deoxyribose, r ribose, m 2'-O-methyl, p phosphodiester). Methylation of C is not given here. [moe] = 2'-O-(2-methoxyethyl) (MOE); [cEt] = constrained ethyl (cEt); [sp] = phosphorothioate linkage

Target: HBV
Conditions: ASO, HepG2, 0.07 µM

Substance: RNA1{[moe](A)[sp].[cEt](C)[sp].d(T)[sp].d(G)[sp].d(G)[sp].d(A)[sp].d(G)[sp].d(C)[sp].d(C)[sp].d(A)[sp].d(C)[sp].d(C)[sp].[cEt](A)[sp].[moe](G)[sp].[cEt](C)[sp].[moe](A)}$$$$V2.0
- target mRNA inhibition: 67% and 55%

Substance: RNA1{[moe](G)[sp].[cEt](A)[sp].[cEt](G)[sp].d(G)[sp].d(T)[sp].d(G)[sp].d(A)[sp].d(A)[sp].d(G)[sp].d(C)[sp].d(G)[sp].d(A)[sp].d(A)[sp].[cEt](G)[sp].[cEt](T)[sp].[moe](G)}$$$$V2.0
- target mRNA inhibition: 71%

Substance: RNA1{[moe](A)[sp].[moe](T)[sp].[moe](T)[sp].[moe](T)[sp].d(A)[sp].d(T)[sp].d(G)[sp].d(C)[sp].d(C)[sp].d(T)[sp].d(A)[sp].d(C)[sp].d(A)[sp].[moe](G)[sp].[moe](C)[sp].[moe](C)[sp].[moe](T)}$$$$V2.0
- target mRNA inhibition: 58% and 42%

Substance: RNA1{[moe](T)[sp].[cEt](T)[sp].d(T)[sp].d(A)[sp].d(T)[sp].d(G)[sp].d(C)[sp].d(C)[sp].d(T)[sp].d(A)[sp].d(C)[sp].d(A)[sp].[cEt](G)[sp].[moe](C)[sp].[cEt](C)[sp].[moe](T)}$$$$V2.0
- target mRNA inhibition: 8% and 1%

Substance: RNA1{[moe](A)[sp].[moe](A)[sp].d(C)[sp].d(C)[sp].d(A)[sp].d(C)[sp].d(T)[sp].d(G)[sp].d(A)[sp].d(A)[sp].d(C)[sp].[moe](A)[sp].[moe](A)[sp].[moe](A)[sp].[moe](T)[sp].[moe](G)}$$$$V2.0
- target mRNA inhibition: 15% and 0%

Substance: RNA1{[moe](G)[sp].[moe](C)[sp].d(A)[sp].d(C)[sp].d(T)[sp].d(A)[sp].d(G)[sp].d(T)[sp].d(A)[sp].d(A)[sp].d(A)[sp].[moe](C)[sp].[moe](T)[sp].[moe](G)[sp].[moe](A)[sp].[moe](G)}$$$$V2.0
- target mRNA inhibition: 54% and 47%

Substance: RNA1{[moe](G)[sp].[moe](T)[sp].d(T)[sp].d(C)[sp].d(C)[sp].d(G)[sp].d(C)[sp].d(A)[sp].d(G)[sp].d(T)[sp].d(A)[sp].[moe](T)[sp].[moe](G)[sp].[moe](G)[sp].[moe](A)[sp].[moe](T)}$$$$V2.0
- target mRNA inhibition: 56% and 55%

Substance: RNA1{[moe](G)[sp].[moe](G)[sp].d(C)[sp].d(A)[sp].d(T)[sp].d(A)[sp].d(G)[sp].d(C)[sp].d(A)[sp].d(G)[sp].d(C)[sp].[moe](A)[sp].[moe](G)[sp].[moe](G)[sp].[moe](A)[sp].[moe](T)[sp].[moe](G)}$$$$V2.0
- target mRNA inhibition: 55% and 48%

Substance: RNA1{[moe](G)[sp].[moe](A)[sp].[moe](A)[sp].[moe](C)[sp].d(C)[sp].d(A)[sp].d(C)[sp].d(T)[sp].d(G)[sp].d(A)[sp].d(A)[sp].d(C)[sp].d(A)[sp].[moe](A)[sp].[moe](A)[sp].[moe](T)[sp].[moe](G)}$$$$V2.0
- target mRNA inhibition: 33% and 45%

Substance: RNA1{[moe](A)[sp].[moe](C)[sp].d(G)[sp].d(G)[sp].d(G)[sp].d(C)[sp].d(A)[sp].d(A)[sp].d(C)[sp].d(A)[sp].d(T)[sp].[moe](A)[sp].[moe](C)[sp].[moe](C)[sp].[moe](T)[sp].[moe](T)[sp].[moe](G)}$$$$V2.0
- target mRNA inhibition: 46%

Substance: RNA1{[moe](T)[sp].[moe](C)[sp].[moe](C)[sp].[moe](G)[sp].d(C)[sp].d(A)[sp].d(G)[sp].d(T)[sp].d(A)[sp].d(T)[sp].d(G)[sp].d(G)[sp].d(A)[sp].[moe](T)[sp].[moe](C)[sp].[moe](G)[sp].[moe](G)}$$$$V2.0
- target mRNA inhibition: 72% and 65%

Substance: RNA1{[moe](C)[sp].[moe](C)[sp].[moe](A)[sp].[moe](C)[sp].[moe](T)[sp].d(G)[sp].d(A)[sp].d(A)[sp].d(C)[sp].d(A)[sp].d(A)[sp].d(A)[sp].d(T)[sp].d(G)[sp].[moe](G)[sp].[moe](C)}$$$$V2.0
- target mRNA inhibition: 55% and 44%

Substance: RNA1{[moe](T)[sp].[moe](G)[sp].[moe](G)[sp].[moe](A)[sp].d(G)[sp].d(C)[sp].d(C)[sp].d(A)[sp].d(C)[sp].d(C)[sp].d(A)[sp].d(G)[sp].d(C)[sp].[moe](A)[sp].[moe](G)[sp].[moe](G)}$$$$V2.0
- target mRNA inhibition: 47% and 35%

Substance: RNA1{[moe](A)[sp].[moe](G)[sp].[moe](A)[sp].[moe](G)[sp].[moe](A)[sp].d(A)[sp].d(G)[sp].d(T)[sp].d(C)[sp].d(C)[sp].d(A)[sp].d(C)[sp].d(C)[sp].d(A)[sp].[moe](C)[sp].[moe](G)[sp].[moe](A)}$$$$V2.0
- target mRNA inhibition: 28% and 27%

Substance: RNA1{[moe](G)[sp].[moe](A)[sp].[moe](A)[sp].[moe](C)[sp].[moe](C)[sp].[moe](A)[sp].d(C)[sp].d(T)[sp].d(G)[sp].d(A)[sp].d(A)[sp].d(C)[sp].d(A)[sp].d(A)[sp].d(A)[sp].[moe](T)[sp].[moe](G)}$$$$V2.0
- target mRNA inhibition: 53% and 43%

Substance: RNA1{[moe](A)[sp].[moe](G)[sp].[moe](T)[sp].d(T)[sp].d(C)[sp].d(C)[sp].d(G)[sp].d(C)[sp].d(A)[sp].d(G)[sp].d(T)[sp].d(A)[sp].[moe](T)[sp].[moe](G)[sp].[moe](G)[sp].[moe](A)[sp].[moe](T)}$$$$V2.0
- target mRNA inhibition: 60% and 64%

Substance: RNA1{[moe](G)[sp].[moe](A)[sp].[moe](G)[sp].[moe](G)[sp].d(T)[sp].d(G)[sp].d(A)[sp].d(A)[sp].d(G)[sp].d(C)[sp].d(G)[sp].d(A)[sp].d(A)[sp].[moe](G)[sp].[moe](T)[sp].[moe](G)}$$$$V2.0
- target mRNA inhibition: 14% and 26%

Substance: RNA1{[moe](G)[sp].[moe](A)[sp].[moe](A)[sp].[moe](G)[sp].d(C)[sp].d(G)[sp].d(A)[sp].d(A)[sp].d(G)[sp].d(T)[sp].d(G)[sp].d(C)[sp].d(A)[sp].[moe](C)[sp].[moe](A)[sp].[moe](C)}$$$$V2.0
- target mRNA inhibition: 48% and 59%

Substance: RNA1{[moe](G)[sp].[moe](C)[sp].[moe](A)[sp].[moe](C)[sp].[moe](T)[sp].d(A)[sp].d(G)[sp].d(T)[sp].d(A)[sp].d(A)[sp].d(A)[sp].d(C)[sp].d(T)[sp].d(G)[sp].[moe](A)[sp].[moe](G)}$$$$V2.0
- target mRNA inhibition: 60%

Substance: RNA1{[moe](A)[sp].[moe](G)[sp].[moe](A)[sp].[moe](A)[sp].d(G)[sp].d(T)[sp].d(C)[sp].d(C)[sp].d(A)[sp].d(C)[sp].d(C)[sp].d(A)[sp].d(C)[sp].[moe](G)[sp].[moe](A)[sp].[moe](G)[sp].[moe](T)}$$$$V2.0
- target mRNA inhibition: 32% and 20%

Substance: RNA1{[moe](C)[sp].[moe](G)[sp].d(A)[sp].d(A)[sp].d(C)[sp].d(C)[sp].d(A)[sp].d(C)[sp].d(T)[sp].d(G)[sp].d(A)[sp].[moe](A)[sp].[moe](C)[sp].[moe](A)[sp].[moe](A)[sp].[moe](A)[sp].[moe](T)}$$$$V2.0
- target mRNA inhibition: 55% and 36%

Substance: RNA1{[moe](C)[sp].[moe](G)[sp].[moe](A)[sp].d(A)[sp].d(C)[sp].d(C)[sp].d(A)[sp].d(C)[sp].d(T)[sp].d(G)[sp].d(A)[sp].d(A)[sp].[moe](C)[sp].[moe](A)[sp].[moe](A)[sp].[moe](A)}$$$$V2.0
- target mRNA inhibition: 48% and 28%

Substance: RNA1{[moe](T)[sp].[moe](T)[sp].[moe](T)[sp].d(A)[sp].d(T)[sp].d(G)[sp].d(C)[sp].d(C)[sp].d(T)[sp].d(A)[sp].d(C)[sp].d(A)[sp].d(G)[sp].[cEt](C)[sp].[cEt](C)[sp].[cEt](T)}$$$$V2.0
- target mRNA inhibition: 45% and 55%
